Experimental findings from patent US8945595B2, “Insect repellent and attractants” (The Regents of the University of California, priority 2009, dated 2015) are described below.

The structures appear in SMILES notation. Entries after “also recorded” stand apart in the source; their conditions may differ.

The test system of assay [1] is CO2 sensitive neuron (A neuron) of peg sensillum. As to the kind of experiment: single-sensillum electrophysiology of maxillary palp peg sensillum, inhibition of CO2 response. In kind it is cell-based, Culex quinquefasciatus. To be noted: 3-sec pre-exposure, 10^-1; 0.25% CO2 impulse every 30-sec over 6-min. How it is done: (§1) FIG. 2 depicts electrophysiology measurements of the peg sensillum on the mosquito maxillary palp. The palp, indicated in brown in the schematic of the mosquito head, has several peg sensilla. Each peg sensilla (grey club-like structure in the center) contains three olfactory neurons A, B and C as indicated, of which the ‘A’ neuron gives a robust and specific increase in frequency of action potentials in response to a stimulus of CO2. Extracellular single-unit recordings are performed by inserting a glass microelectrode into the peg sensilla, and puffing an odor such as CO2 towards the mosquito maxillary palps. The signal is amplified to obtain the trace of action potentials.
Action potential traces from the peg sensillum of the maxillary palp show spike amplitudes from three neurons, where the highest spike (from neuron A) indicates the CO2 response. A 3-sec stimulus of 0.3% CO2 (indicated by longer black bar), is overlaid with a 0.5-sec stimulus of candidate odors. […]
The recovery of the response to a 0.25% impulse (top) or 0.3% impulse (bottom) of CO2 was measured every 30-sec over a 6-min time period, after an initial 3-sec pre-exposure with (A) butanal (10^−1) (top), or (B) an ‘odor mixture’ consisting of 1-hexanol, pentanal, butanal, and 2,3-butanedione at 10^−2 concentration (bottom). […]

The subject of assay [2] is CO2-sensitive ab1C neurons. The assay can be described thus: single-sensillum electrophysiology, inhibition of CO2 response of ab1C neurons. To be noted: odourant 10^-2; 3-sec 0.3% CO2 with 1-sec odourant. In kind it is cell-based, Drosophila. An excerpt: Representative traces (top) and mean responses (bottom) from single-sensillum electrophysiology of ab1 sensilla in mutant flies; spikes represent activity of the ab1C neuron. a, 3-sec stimulus of odourant overlaid with a 1-sec application of 0.3% CO2. b, 3-sec stimulus of 0.3% CO2 overlaid with a 1-sec application of odourant. PO=paraffin oil, d4on=2,3-butanedione, 6ol=1-hexanol. n=6, error bars=s.e.m. Spikes per second were counted during the 1-sec stimulus period, and spontaneous activity subtracted. (For data in a and b, T-test, *P<0.001, **P<0.005, ***P<0.01, ****P<0.05) c, ab1C responses to indicated concentrations of CO2 in the presence of solvent (PO), 1-hexanol (6ol) or 2,3-butanedione (d4on). Odourants were tested at 10^−1 dilution. Firing rates were counted in consecutive 0.1-sec bins. n=3, error bars=s.e.m.
Bars indicate stimulus periods for 0.3% CO2, and overlays with 1-hexanol (6ol) or 2,3-butanedione (d4on) at the indicated concentrations. b, Recovery of ab1C responsiveness to a 0.5-sec, 0.3% CO2 stimulus applied every 30-sec after initial treatment with 3-sec stimulus of either d4on (10^−1) or paraffin oil (PO). n=5, error bars=s.e.m., (T-test, *P<0.005, **<0.01, ***P<0.05). c, CO2 response inhibition by structurally related compounds. A 3-sec stimulus of 0.3% CO2 was delivered in combination with 1-sec application of indicated odourant (10^−2) as in a. Percent increase or decrease in mean ab1C response was calculated relative to mean response of paraffin oil. n=5. d, Structures of CO2 and the 4 strongest antagonists. e-f, show mean odourant responses. e, Odourants were tested on ab1C neurons in Or83b2 flies at 10^−2 dilution in paraffin oil. Bars represent values after subtraction of mean response to paraffin oil. n=3. f, Odourants at indicated concentrations were tested on ab3A neuron in wild-type (wt) and ΔHalo (AH) mutants that lack Or22a and Or22b. Bars represent values after subtraction of spontaneous activity. n=5, error bars=s.e.m.
FIG. 16 is a schematic diagram of an odour-delivery system to maintain steady concentration of CO2 in binary mixture experiments. Cartridges were made from Pasteur pipettes with pre-filled cotton wool inserts. […] odorant dissolved in paraffin oil (at specific concentrations) was applied to the cotton wool, and a 1.5 ml disposable tip attached to the open end to make the “odour cartridge”. A controlled “humidified air flow” was generated from a compressed air cylinder by bubbling through water, and passed through a glass tube, and released over the recording arena holding the Drosophila. A C-55 stimulus controller (Syntech) was used to generate an additional activated-charcoal filtered continuous air flow of 5 ml/sec which was delivered into the humidified airstream through a “blank cartridge” with the tip placed through a hole in the tube. To generate controlled odourant stimulus the C-55 stimulus controller was used to switch air flow from the “continuous air flow” to “odor stimulus flow” channel. An additional CO2 stimulus was pulsed through a separate system that delivered controlled pulses (variable 2.5 ml/sec-6.5 ml/sec) into the same humidified airstream, from either a 1%, 5% or 100% cylinder of CO2 (Airgas).
Extracellular single-unit recordings were performed. Odourant stimuli were delivered via Pasteur pipette odour cartridges (see, FIG. 16). Chemicals were of the highest purity available, typically>99% (Sigma-Aldrich). All odourants were diluted in paraffin oil. A controlled volume of air 5 ml/sec was puffed through the odour cartridge containing vapours, and was delivered into a constant humidified airstream of 10 ml/sec that was passed over the fly antenna. […] CO2 stimulus was pulsed through a separate delivery system that delivered controlled pulses (variable 2.5 ml/sec-6.5 ml/sec) into the same humidified airstream, from either a 1%, 5% or 100% tank of CO2 (Airgas). […]

Assay [3] deals with CO2 sensitive neuron (A neuron) of peg sensillum. The assay can be described thus: single-sensillum electrophysiology of maxillary palp peg sensillum, inhibition of CO2 response. In kind it is cell-based, Aedes aegypti. To be noted: 3-sec pre-exposure, 10^-1; 0.3% CO2 impulse every 30-sec over 6-min. The method, then:
as §1
Action potential traces from the peg sensillum of the maxillary palp show spike amplitudes from three neurons, where the highest spike (from neuron A) indicates the CO2 response. A 3-sec stimulus of 0.3% CO2 (indicated by longer black bar), overlaid with a 1-sec stimulus of odor. CO2 and odor stimuli are applied in the same manner as discussed above. […]
The recovery of the response to a 0.3% impulse of CO2 was measured every 30-sec over a 6-min time period, after an initial 3-sec pre-exposure with (A) butanal (10^−1), or (B) an ‘odor mixture’ consisting of 1-hexanol, pentanal, butanal, and 2,3-butanedione at 10^−2 concentration. […]

Assay [4] relates to CO2 sensitive A neuron of peg sensillum. As to the kind of experiment: activation of CO2 sensitive neuron with a volatile odorant. The class given is cell-based, Culex quinquefasciatus. As to conditions: indicated concentrations. The method, then:
as §1
(a) Action potential traces from the peg sensillum of the maxillary palp show spike amplitudes from three neurons, where the spikes with the largest amplitude belongs to the CO2 sensitive A neuron. (b) 1 sec of the indicated dilution 2,3-butanedione is puffed to Aedes aegypti. (c) 1 sec of indicated odor is puffed to Anopheles gambiae. (d) butanone and (e) 2,3-butanedione are given to Culex quinquefasciatus at the indicated concentrations. PO=paraffin oil. n=5. Baseline activity subtracted. Error bars indicate SEM.

With `CCCC=O` [butanal], the “CO2 response after pre-exposure” value in assay [1] and in assay [3] was “long term reduction in CO2 response” each time. The “CO2 response inhibition by structurally related odourants” value in assay [2] is given as “effective inhibitors”.

As to `CCCCC=O` [pentanal], in assay [2], the “CO2 response inhibition by structurally related odourants” value is “effective inhibitors”.

Take `CCC(C)=O` [butanone]: the “activation of CO2 sensitive neuron” value in assay [4] is on record as “activation; also recorded: activator”.
